The values that follow come from patent US20210227854A1, “USE OF D-RIBOSE TO ENHANCE ADAPTATION TO PHYSICAL STRESS” (Bioenergy Life Science, Inc., priority 2014, published 2021).

Test [1] in a line: Heart rate (HR) during exercise sessions. It is filed as in vivo, human. To be noted: for HR (bpm): 10 g/day, mean ± SD. The procedure: A high-intensity exercise protocol was designed as a double-blind, crossover study to assess the influence of D-Ribose adaptation to physical stress. Specifically, D-Ribose and a control (Dextrose) were administered on separate subjects at a dosage of ten grams per day (10 g/day). A variety of physiological parameters were measured in the subjects administered D-Ribose (DR) supplementation (i.e., the DR subjects) versus the subjects administered Dextrose (DEX) supplementation (i.e., the DEX subjects). To test D-ribose for adaptation, the twenty-six (26) adult subjects were further divided into two subgroups based on their fitness level (i.e., peak oxygen uptake (VO2 max) results. The first subgroup comprised subjects with higher VO2 max results (i.e., the “Fit Subgroup”) and the second subgroup comprised subjects with lower VO2 max results (i.e., the “Unfit Subgroup”). The Unfit Subgroup consisted of six (6) females and seven (7) males. The average age of the Unfit Subgroup was 27.7±3.4 years and the average peak VO2 of the Unfit Subgroup was 39.9±4.1 mL/kg/min. The Fit Subgroup consisted of four (4) females and nine (9) males. The average age of the Fit Subgroup was 27.6±3.5 year and the average peak VO2 of the Fit Subgroup was 52.2±4.3 mL/kg/min. The protocol of the double-blind crossover study involved an initial baseline assessment, followed by two separate day assessments after consuming either a DR or DEX supplement. Each exercise session entailed measurements of creatine kinase (CK), blood urea nitrogen (BUN), glucose, heart rate (HR), rate of perceived exertion (RPE), and power output (PO) measurements. Each exercise session consisted of six (6) ten-minute intervals of exercise on a cycle ergometer. During each ten-minute interval, the subject cycled for eight (8) minutes at a workload of approximately 60% of the subject's VO2 max, then immediately cycled for an additional two (2) minutes at a workload of approximately 80% VO2 max (approximately one workload above the subject's calculated lactate threshold). Cadence and power output were monitored at ten-minute intervals during each exercise session. At the end of the sixty-minute exercise session, each subject completed a two-minute performance task (time trial). This performance task required the subject to produce as much power as possible during the two-minute interval. Peak power, average power, and percent decline were assessed during this two-minute task trial. Workload for performance task was set at five percent (5%) of the subject's body weight. Heart rate was recorded using a Polar HR monitor. Blood glucose levels were measured using a Bayer glucose monitor. Blood lactate levels were measured by an AccuSport Lactate Analyzer. Creatine kinase and BUN were measured utilizing an Abaxis Piccolo analyzer. Power data from the time trial performance test was assessed with the Sports Medicine Industries (SMI) software package.

The nature of test [2]: Serum creatine kinase (CK) around three days of high-intensity exercise. The conditions noted are these: for CK (u): Day 1 to Day 3, 10 g/day, mean ± SD; for Creatine kinase levels, average increase: text b38, p=0.03. Type of test: in vivo, human. The procedure:
A high-intensity exercise protocol was designed as a double-blind, crossover study to assess the influence of D-Ribose adaptation to physical stress. Specifically, D-Ribose and a control (Dextrose) were administered on separate subjects at a dosage of ten grams per day (10 g/day). A variety of physiological parameters were measured in the subjects administered D-Ribose (DR) supplementation (i.e., the DR subjects) versus the subjects administered Dextrose (DEX) supplementation (i.e., the DEX subjects). To test D-ribose for adaptation, the twenty-six (26) adult subjects were further divided into two subgroups based on their fitness level (i.e., peak oxygen uptake (VO2 max) results. The first subgroup comprised subjects with higher VO2 max results (i.e., the “Fit Subgroup”) and the second subgroup comprised subjects with lower VO2 max results (i.e., the “Unfit Subgroup”). The Unfit Subgroup consisted of six (6) females and seven (7) males. The average age of the Unfit Subgroup was 27.7±3.4 years and the average peak VO2 of the Unfit Subgroup was 39.9±4.1 mL/kg/min. The Fit Subgroup consisted of four (4) females and nine (9) males. The average age of the Fit Subgroup was 27.6±3.5 year and the average peak VO2 of the Fit Subgroup was 52.2±4.3 mL/kg/min. The protocol of the double-blind crossover study involved an initial baseline assessment, followed by two separate day assessments after consuming either a DR or DEX supplement. Each exercise session entailed measurements of creatine kinase (CK), blood urea nitrogen (BUN), glucose, heart rate (HR), rate of perceived exertion (RPE), and power output (PO) measurements. Physiologic parameters were measured and hydration was provided to the subjects during the exercise session. The same protocol for testing and hydration protocol was followed for both DR subjects and DEX subjects. Blood samples were drawn from each subject via a venipuncture technique at the following time periods: • Ten (10) minutes before commencement of exercise; • Twenty (20) minutes after the commencement of and during exercise; • Forty (40) minutes after the commencement of and during exercise; • Sixty (60) minutes after the commencement of and during exercise; and • Twenty-four (24) hours after the conclusion of exercise (twenty-five (25) hours after the commencement of exercise). Blood glucose was measured at all of the above time points except at twenty-four (24) hours post-exercise. Creatine kinase and BUN levels were measured at the pre-exercise (−10 min.) point during the three (3) days of exercise and twenty-four (24) hours post-exercise following the third (last) exercise session. Heart rate was recorded using a Polar HR monitor. Blood glucose levels were measured using a Bayer glucose monitor. Blood lactate levels were measured by an AccuSport Lactate Analyzer. Creatine kinase and BUN were measured utilizing an Abaxis Piccolo analyzer. Power data from the time trial performance test was assessed with the Sports Medicine Industries (SMI) software package.

Consider `O=C[C@H](O)[C@@H](O)[C@H](O)[C@H](O)CO` [DEX, Dextrose, reference compound], for which, in test [1] (Fit Subgroup), the “Average HR” value is 153±12 bpm and the “HR (bpm)” value stood at 152.4 ± 11.7 bpm. Besides, in test [1] (Unfit Subgroup), the “Average HR” value was determined as 153±17 bpm and the “HR (bpm)” value amounted to 152.0 ± 19.5 bpm. In test [2] (Fit Subgroup), the “CK (u)” value is reported as 12.1 ± 270 u. In test [2] (Unfit Subgroup), the “CK (u)” value is 124.5 ± 126.5 u and the “Creatine kinase levels, average increase” value came to 121.4±110.2 U.

Take `O=C[C@H](O)[C@H](O)[C@H](O)CO` [DR, D-Ribose]: in test [1] (Fit Subgroup), the “Average HR” value worked out at 153±12 bpm and the “HR (bpm)” value came out at 152.6 ± 11.9 bpm. Moreover, in test [1] (Unfit Subgroup), the “Average HR” value is recorded as 152±20 bpm and the “HR (bpm)” value turned out to be 151.5 ± 19.4 bpm. Besides, in test [2] (Fit Subgroup), the “Change in CK levels, DR versus DEX” value is reported as “No differences” and the “CK (u)” value was found to be 40.0 ± 348.1 u. In test [2] (Unfit Subgroup), the “CK (u)” value is listed as 10.3 ± 79.3 u and the “Creatine kinase levels, average increase” value amounted to 37.1±85.2 U.
